Assay results as given in US11365170B2, “Non-solvate crystal of eucomic acid and method for producing same” (KYOWA HAKKO BIO CO., LTD., priority 2018, dated 2022).

Columns and labels:
Format in all cases: physicochemical
[1] = Water content by Karl Fischer method; settings: crystal after heating and drying at 100° C. for 9 hours
Method: Measurement Example by Karl Fischer Method
Used equipment: AQV-2200 (HIRANUMA SANGYO Co., Ltd.)
Measurement method: The water content in the crystal is measured in accordance with instructions for use of AQV-2200 (HIRANUMA SANGYO Co., Ltd.)

[2] = Methanol content (residual methanol) measured using a gas chromatograph; settings: value includes methanol adhering to the crystal surface
Method: Analysis Example Using Gas Chromatograph
Used equipment: GC-2014 (manufactured by Shimadzu Corporation)
Column: AGILENT J&W DB-WAX 30 m×0.535 mm×1.00 μm (Agilent Technologies, Inc.)
Column temperature: 200° C.
By analysis using HPLC, it was confirmed that the crystal was a crystal of eucomic acid. […] The methanol content is a value including methanol adhering to the crystal surface. The methanol content in the crystal except for the methanol adhering to the crystal surface was 9.0 wt %. It was considered from this that the crystal was a mono-methanol solvate crystal of eucomic acid.
Subsequently, the obtained methanol solvate crystal of eucomic acid was heated and dried at 100° C. for 9 hours at normal pressure. By analysis using HPLC, it was confirmed that the crystal after heating and drying was a crystal of eucomic acid. […] As a result of measuring residual methanol using a gas chromatograph, a methanol content of the crystal was 0.14 wt %. It was found from the above that the crystal was a non-solvate crystal of eucomic acid.

[3] = Angle of repose measurement (Multi Tester MT-1001T); settings: sieve 1.18 mm, vibration width 0.5 to 0.6 mm; mean of three sites
Excerpt: The angle of repose refers to an angle formed by a generating line of a cone formed with a powder when the powder is allowed to gently fall onto the horizontal plane through a kind of funnel and a horizontal plane.
The angle of repose can be measured using Multi Tester MT-1001T (manufactured by Seishin Enterprise Co, Ltd.) in accordance with the accompanying manual according to the following measurement example.
Measurement Example of Angle of Repose
Used equipment: multi-tester MT-1001T type (manufactured by Seishin Enterprise Co., Ud.)
Vibration width: 0.5 to 0.6 mm
Measurement method: Crystals are allowed to fall by passing through a sieve of 1.18 mm that is vibrated with a width of 0.5 to 0.6 mm, and are deposited on an angle-of-repose table (part number: MT-1029). The angle-of-repose table is rotated without being given vibration, angles are read at three sites, and an arithmetic mean value of the angles is determined to be the angle of repose.

[4] = Uniformity coefficient from particle size distribution measurement; settings: ratio of 60% passing to 10% passing particle diameter; closer to 1 = higher fluidity
Excerpt: The uniformity coefficient is an index representing fluidity of the powder, and refers to a ratio obtained by dividing a particle diameter through which the powder in an amount of 60% passes by a particle diameter through which the powder in an amount of 10% passes on a cumulative particle diameter distribution curve measured by particle size distribution measurement or sieve division. The closer the value of the uniformity coefficient is to 1, the higher the fluidity is.
The uniformity coefficient can be measured in accordance with the accompanying manual using, for example, a particle size distribution measuring device LS 13 32 (manufactured by Beckman Coulter, Inc.).

[5] = Methanol content in crystal, except methanol adhering to the crystal surface, by thermal analysis; settings: excluding surface-adhering methanol
Excerpt: The fact that the methanol solvate crystal of eucomic acid is a mono-methanol solvate crystal can be confirmed by the fact that a methanol content in the crystal except for methanol adhering to a crystal surface thereof is generally 7.0 to 14.0 wt %, preferably 9.0 to 11.0 wt %.
The methanol content in the crystal except for the methanol adhering to the crystal surface can be measured by, for example, thermal analysis described in the following measurement example.
Measurement Example of Methanol Content in Crystal by Thermal Analysis
Used equipment: EXSTAR 6000 TG/DTA 6200 (manufactured by Seiko Instruments Inc.)
Measurement conditions: Temperature rises from 20° C. to 30° C. at 20° C./min→Hold for 15 minutes at 30° C.→Temperature rises from 30° C. to 250° C. at 5° C./min
Nitrogen flow rate: 300 mL/min

| SMILES | Water content (hydrated water) [1] | Methanol content [2] | Methanol content ([2]; listed as non-solvate crystal of eucomic acid) | Angle of repose [3] | Uniformity coefficient [4] | Methanol content ([2]; listed as methanol solvate crystal of eucomic acid) | Methanol content in the crystal except for the methanol adhering to the crystal surface [5] |
| --- | --- | --- | --- | --- | --- | --- | --- |
| O=C(O)C[C@](O)(Cc1ccc(O)cc1)C(=O)O [Non-solvate crystal, (R)-2-hydroxy-2-[(4-hydroxyphenyl)methyl]butanedioic acid] | did not contain hydrated water | 0.14 wt % | 0.14 wt % | 39.0 degree | 3.36 | – | – |
| O=C(O)C[C@](O)(Cc1ccc(O)cc1)C(=O)O [Methanol solvate crystal, (R)-2-hydroxy-2-[(4-hydroxyphenyl)methyl]butanedioic acid] | – | 28.1 wt % | – | 45.7 degree | 4.25 | 28.1 wt % | 9.0 wt % |
